Assay results from patent US8519154B2, “Method for treatment of bronchial asthma” (Council of Scientific & Industrial Research, priority 2011, dated 2013).

Columns and labels:
PDE-4 = experiment: Phosphodiesterase 4 assay, [3H]cAMP SPA enzyme assay, enzyme preparation from rat heart; type: biochemical
Method: For phosphodiesterase (PDE-4) assay, enzyme preparations were performed from rat heart (Ko et al 2004, Biochemical Pharmacology 68:2087-2094). Heart was excised from anesthetized rat and transfer into normal saline solution. Heart weighing 687 mg was taken and homogenized in 2.5 volumes of homogenization buffer containing 20 mM Tris-Cl, 50 mM NaCl, 2 mM EDTA, 0.1 mM PMSF, […], protease inhibitors 1 μg/μl. The homogenate was centrifuged at 500×g for 5 minute at 4° C. Then sup was taken for further centrifuged at 40,000×g for 30 minute (ultra centrifugation). After centrifugation supernatant was collected for phosphodiesterase assay. Protein concentration was estimated and for each assay, 2.5 μg protein (PDE enzyme preparation) was used. All compounds tested for PDE 4 activity were dissolved in DMSO.
Phosphodiesterase 4 assay: Phosphodiesterase 4 assay was conducted with [^3H] cAMP SPA enzyme assay (GE Amersham, UK) using 2.5 μg enzyme preparation for each well. Into each well 60 μl water, 10 μl assay buffer supplied with the kit, 10 μl compound (inhibitor), 10 μl PDE enzyme or homogenizing buffer (blank) and […] radiolabel led cAMP ([^3H]cAMP, GE Amersham, UK) were added. To check activity of the enzyme without inhibitor (compound) 10 μl DMSO was added in place of inhibitor to a separate well. The reaction mixtures were incubated for […] at 30° C. The reaction was stopped by adding 50 μl SPA bead supplied with the kit. It was then mixed well and allowed to stand at room temperature for 20 min. Breakdown of cAMP in each tube was monitored by β counter. The reading in each tube was obtained in counts per minute (CPM). The reading of the blank tube (without enzyme) was subtracted from each tube to normalize the counts. The enzyme activity was calculated by considering the CPM reading without any inhibitor (compound) as 100.

mice [1] = experiment: Analgesic activity by hot plate method; type: in vivo
Method: Analgesic activity was carried out by Hot Plate method. The response time for paw licking or jumping on the heated plate of analgesiometer (55±1° C.). (Socrel, Ugo Basile, Italy) was taken as the reaction time. A comparison of reaction time (in seconds) between control (untreated) and Compound I treated mice was made for a group of 6 animals in each test group [Eddy, N B., Leimbach, D., Synthetic analgesics, II. Dithienylbutenyl- and dithienylbutylamines. J. Pharmacol. Exp. Ther. 107 (1953) 385-393].
The time for hind paw licking or jumping on the heated plate of analgesiometer (Socrel, ugo basile, Italy) was taken as the reaction time.

mice [2] = experiment: Electric shock induced convulsions; type: in vivo, Swiss mice
Method: Convulsion were induced by a single electroshock (50 Hz in frequency, 0.5 ms pulse width, 50 mA current for 0.3 s) applied through bi-polar electrodes attached to the ear pinna on both side using a pulse generator (Ugo Basile, Italy). The convulsive activity (determined by loss of tonic extensor seizure) was recorded in control (untreated) and Compound I were treated (before electro-shock application) animals [Achliya, G S, Wadodkar, S G, Darle, A K., Evaluation of CNS activity of Bramhi Ghrita. Indian J. Pharmacol. 37 (2005) 33-36].
Anti-convulsant activity was measured by electric shock induced seizure. Five Swiss mice were used for one dose of drug. Convulsion were induced by a single electroshock (50 Hz in frequency, 0.5 ms pulse width, 50 mA current for 0.3 s) applied through bi-polar electrodes attached to the ear pinna on both side by a pulse generator (Ugo Basile, Italy) Test drug were administered orally 60 min before electroshock application, and convulsive activity was determined by loss of tonic extensor seizure.

Male wistar rats = experiment: Blood pressure, heart rate and respiratory rate by telemetry; type: in vivo; design: RR: unit not given beside the values; conditions: for RR / HR / DBP / SBP: 50 mg/kg i.v.; for HR: in bpm (unit assumed); for DBP / SBP: in mmHg (unit assumed)
Method: Male wistar rats of approximately 6 months of age were anaesthetised with a mixture of ketamine (40 mg/kg) and xylazine (5 mg/kg) and fitted with TL11M2-C50PXT telemetry transmitters (Data Sciences Intl., St. Paul, Minn., USA) in the peritoneal cavity by performing surgery. Experiments were performed 15 days after surgery. Individual rats were placed in plastic cage on top of a receiver (RLA 2000, Data Science) for the measurement of systolic BP, diastolic BP, Heart rate and respiratory rate. The signals from the transmitters were received by two RLA 2000 receivers and transmitted via a Data Exchange Matrix to a Dataquest PCI card CQ 2240 in the computer. The data were interpreted by the Dataquest program A.R.T. version 2.2 Gold Version.

CYP 3A4 (liver) = CYP 3A4 (liver) (Homo sapiens, UniProt P08684); experiment: Metabolism by CYP 3A4; type: in vitro ADME
Chain of CYP 3A4 (liver) (P08684 whole entry, species assumed): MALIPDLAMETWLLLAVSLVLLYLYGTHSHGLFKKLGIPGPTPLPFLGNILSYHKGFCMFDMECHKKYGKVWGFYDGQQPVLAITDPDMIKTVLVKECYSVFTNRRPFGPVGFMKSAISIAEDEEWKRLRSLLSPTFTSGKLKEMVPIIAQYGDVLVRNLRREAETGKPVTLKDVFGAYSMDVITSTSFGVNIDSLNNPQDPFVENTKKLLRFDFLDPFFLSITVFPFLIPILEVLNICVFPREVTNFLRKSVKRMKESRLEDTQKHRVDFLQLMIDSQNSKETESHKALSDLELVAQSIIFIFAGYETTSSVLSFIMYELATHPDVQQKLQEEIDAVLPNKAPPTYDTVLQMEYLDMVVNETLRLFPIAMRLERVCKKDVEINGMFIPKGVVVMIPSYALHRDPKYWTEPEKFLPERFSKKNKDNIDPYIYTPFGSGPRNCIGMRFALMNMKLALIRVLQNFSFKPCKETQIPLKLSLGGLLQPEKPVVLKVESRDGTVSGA

Plasma binding = type: in vitro ADME

## COc1cc(C=O)cc2c1[nH]c1ccccc12 [Compound I, 1-methoxy-3-formyl-9H carbazole]
PDE-4; 0.1 μg/ml
  % of Inhibition: 1.4%
PDE-4; 1 μg/ml
  % of Inhibition: 34.7%
PDE-4; 10 μg/ml
  % of Inhibition: 73.1%
PDE-4; compound of natural origin (extraction from plants)
  IC50: 20 µM
PDE-4; compound of natural origin, compared with rolipram
  extent of inhibition of PDE 4 activity: comparable to known PDE 4 inhibitor, rolipram
PDE-4; synthetically prepared compound (chemical origin)
  IC50: 0.05 µM
Mice [1]; 12.5 mg/kg p.o., 0 hr
  Reaction time: 11.08 ± 1.60 s
Mice [1]; 12.5 mg/kg p.o., 1 hr
  Reaction time: 10.62 ± 1.64 s
Mice [1]; 25 mg/kg p.o., 0 hr
  Reaction time: 13.58 ± 2.15 s
Mice [1]; 25 mg/kg p.o., 1 hr
  Reaction time: 14.62 ± 4.67 s
Mice [1]; 50 mg/kg p.o., 0 hr
  Reaction time: 14.38 ± 1.87 s
Mice [1]; 50 mg/kg p.o., 1 hr
  Reaction time: 14.34 ± 1.07 s
Mice [1]; 12.5, 25 and 50 mg/kg orally, 55±1° C.
  change in the reaction time on a hot plate: did not show any significant change in the reaction time
Mice [2]; 12.5 mg/kg p.o.
  Convulsions Clonic: 5/5
  Convulsions Tonic: 5/5
  Mortality: 1/5
Mice [2]; 50 mg/kg p.o.
  Convulsions Clonic: 5/5
  Convulsions Tonic: 5/5
  Mortality: 0/5
Mice [2]; 100 mg/kg p.o.
  Convulsions Clonic: 5/5
  Convulsions Tonic: 5/5
  Mortality: 0/5
Mice [2]; 12.5, 25 and 50 mg/kg orally
  anti-convulsant activity: no anti-convulsant activity
Male wistar rats; 0 mins
  RR: 89.4 ± 1.4
  HR: 242.1 ± 9.7
  DBP: 71.7 ± 10.2
  SBP: 112 ± 2.89
Male wistar rats; 1 hr
  RR: 85.77 ± 8.9
  HR: 309.1 ± 45.9
  DBP: 82.1 ± 4.5
  SBP: 115.4 ± 3.6
Male wistar rats; 2 hr
  RR: 89.5 ± 2.56
  HR: 261 ± 13.8
  DBP: 77.5 ± 6.07
  SBP: 114.5 ± 2.8
Male wistar rats; 3 hr
  RR: 84.5 ± 3.5
  HR: 272.7 ± 17.5
  DBP: 78.5 ± 8.1
  SBP: 110.2 ± 4.5
Male wistar rats; 4 hr
  RR: 96.3 ± 2.1
  HR: 273.1 ± 17.06
  DBP: 75.9 ± 8.2
  SBP: 108.7 ± 5.2
Male wistar rats; rats, before and after treatment
  change in blood pressure, heart rate and respiratory rate: No significant change in blood pressure, heart rate and respiratory rate
CYP 3A4 (liver)
  metabolism: metabolized by CYP 3A4 (liver)
Plasma binding
  plasma binding: high plasma binding
